Test results reported in patent EP0600087A1, “METHOD AND KIT OF IN VITRO IRRITATION TEST” (priority 1991, dated 1993).
Read-outs that look alike come from different tables or passages of the source.

How the values were obtained:
[1] = system: rabbit; experiment: Draize method, ocular irritation; type: in vivo; conditions: for Draize score Ocular irritation: Table 1, Conc. of test substance 0.5%; for Actual evaluation: Table 3, Draize ocular irritation score used for the regression; for Found value: Table 4, measurements according to the Draize method
Text: The assay and evaluation as to whether or not a foreign substance gives harmful irritation to a living body which induces vital reactions, for example, inflammation, hemolysis, opacification, and swelling, are essential in the product development in the technical fields of cosmetics, medicines, and other medical materials and oleo chemicals where a particular substance is directly applied to the living body At the present time, experimental animals are mainly used for these assay and evaluation. In the tests, particularly in irritation tests, use is made of a skin irritation test (primary irritation and accumulating irritation), an ocular irritation test, a patch test, and a mucous membrane irritation test (tunica mucosa oris and urogenital mucosa membrane). For example, in the ocular irritation test, the Draize method, which uses a rabbit, is generally adopted. In this method, the ocular irritation by a test substance is assayed particularly through (1) the determination of the degree of clouding of the cornea, (2) the evaluation of the incidence of congestion or edema of the conjunctiva, and (3) the evaluation of the incidence of congestion or swelling of the iris.
The same test substance as that used above was subjected to a test according to the Draize method.

[2] = Estimate of Draize score by regression of HDR values (Example 3); conditions: Draize score estimated by 17.61 + 0.624 1% HDR + 0.481 0.016% HDR
Text: The results thus obtained were subjected to regression using the following associative equation to obtain the above-described correlation coefficient. 17.61 + 0.624 1% HDR + 0.481 0.016% HDR [formula] Consequently, a very good correspondence was observed even with evaluation by a plurality of concentrations.

[3] = Estimate of Draize score by regression of RBC and HDR values (Example 4); conditions: estimated value based on the Draize method using the associative equation with RBC, 2% HDR, 0.25% HDR, 0.063% HDR
Text: • Method 1: The procedure as described in Example 1 was repeated. • Method 2: The procedure as described in Example 2 was repeated.
The results obtained from the two methods were subjected to regression using the associative equation below: […]
Here, the calculated values are estimated values based on the Draize method using the above-described associative equation, and the found values are measurements according to the Draize method.

[4] = Table 1, Conc. of test substance 0.5%

Compound | Draize score Ocular irritation [1] | Actual evaluation [1] | Found value [1] | Estimated value [2] | Calculated value [3] | Draize score Primary ocular irritation [4] | Draize score Primary ocular irritation (in vivo) | Draize score Primary skin irritation (in vivo)
CCCCCCCCCCCCOS(=O)(=O)[O-].[Na+] [SDS, sodium dodecylsulfate] | 35.1 | 35.100 | 70 | 43.331 | 70.5078 | 6.9 |  | 
CCCCCCCCCCCCCCCC[n+]1ccccc1 [Cetyl pyridinium chloride] | 70 | 70.000 | 35 |  |  |  | 4.0 | 4.0
CCCCCCCCOc1ccccc1 [Octyl phenyl ether] | 8.7 | 3.700 | 8.7 | 17.610 | 6.9685 | 0.2 |  | 
